{"source": "patent US11826399B2", "about": "“Chlorotoxin agents and uses thereof” (Eisai Inc., priority 2017, dated 2023)", "system": "PC-3 human prostate cancer cells", "assay": "Co-administration of Cryptophycin Payload with CTX or iRGD in subcutaneous PC-3 xenograft model", "assay_type": "in vivo, mouse", "conditions": "iRGD + Cryptophycin Payload 0.2 mg/kg (data not shown)"}
{"substance": "iRGD: tumor-penetrating peptide iRGD (CRGDK/RGPD/EC) (SEQ ID NO: 202)", "values": [{"measurement": "Effect of co-administration on tumor re-growth versus Cryptophycin Payload alone", "result": "re-growth of tumors was not shown to be significantly different"}]}
